Our source for the IC50 values is paper PMC5440000 (Clinical Interventions in Aging, 2017).

In this test the target is Aβ42 (Homo sapiens, UniProt P05067). In words: Thioflavin T aggregation assay, […] h at […]°C. The test is classed as biochemical.
Aβ42, sequence (P05067 672-713): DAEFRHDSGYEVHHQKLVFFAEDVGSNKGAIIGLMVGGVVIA

For `CC1=C(/C=C/C(C)=C/C=C/C(C)=C/C=C/C=C(C)/C=C/C=C(C)/C=C/C(=O)[C@]2(C)C[C@@H](O)CC2(C)C)C(C)(C)CCC1` [cryptocapsin], the IC50 amounted to 1.97 µM.

In turn, `CC1=C(/C=C/C(C)=C/C=C/C(C)=C/C=C/C=C(C)/C=C/C=C(C)/C=C/C2=C(C)C[C@@H](O)CC2(C)C)C(C)(C)C[C@H](O)C1` [zeaxanthin] registered an IC50 of 2.29 µM.
